Measurements from patent publication US20260258049A1, “Molecules and Methods Related to Treatment of Uncontrolled Cellular Proliferation” (ST. JUDE CHILDREN'S RESEARCH HOSPITAL, priority 2019, published 2026).
Read-outs that look alike come from different tables or passages of the source.

Key:
JAK2 = molecular target: T1, JAK2 (Homo sapiens, UniProt O60674, I682F); assay: Immunoblot protein degradation in MHH-CALL-4 cells; type: cell-based
T1 construct: degradation of JAK2 and GSPT1 in MHH-CALL-4 cells; endogenous in cells; host or cells: MHH-CALL-4
T1 sequence (O60674 whole entry I682F): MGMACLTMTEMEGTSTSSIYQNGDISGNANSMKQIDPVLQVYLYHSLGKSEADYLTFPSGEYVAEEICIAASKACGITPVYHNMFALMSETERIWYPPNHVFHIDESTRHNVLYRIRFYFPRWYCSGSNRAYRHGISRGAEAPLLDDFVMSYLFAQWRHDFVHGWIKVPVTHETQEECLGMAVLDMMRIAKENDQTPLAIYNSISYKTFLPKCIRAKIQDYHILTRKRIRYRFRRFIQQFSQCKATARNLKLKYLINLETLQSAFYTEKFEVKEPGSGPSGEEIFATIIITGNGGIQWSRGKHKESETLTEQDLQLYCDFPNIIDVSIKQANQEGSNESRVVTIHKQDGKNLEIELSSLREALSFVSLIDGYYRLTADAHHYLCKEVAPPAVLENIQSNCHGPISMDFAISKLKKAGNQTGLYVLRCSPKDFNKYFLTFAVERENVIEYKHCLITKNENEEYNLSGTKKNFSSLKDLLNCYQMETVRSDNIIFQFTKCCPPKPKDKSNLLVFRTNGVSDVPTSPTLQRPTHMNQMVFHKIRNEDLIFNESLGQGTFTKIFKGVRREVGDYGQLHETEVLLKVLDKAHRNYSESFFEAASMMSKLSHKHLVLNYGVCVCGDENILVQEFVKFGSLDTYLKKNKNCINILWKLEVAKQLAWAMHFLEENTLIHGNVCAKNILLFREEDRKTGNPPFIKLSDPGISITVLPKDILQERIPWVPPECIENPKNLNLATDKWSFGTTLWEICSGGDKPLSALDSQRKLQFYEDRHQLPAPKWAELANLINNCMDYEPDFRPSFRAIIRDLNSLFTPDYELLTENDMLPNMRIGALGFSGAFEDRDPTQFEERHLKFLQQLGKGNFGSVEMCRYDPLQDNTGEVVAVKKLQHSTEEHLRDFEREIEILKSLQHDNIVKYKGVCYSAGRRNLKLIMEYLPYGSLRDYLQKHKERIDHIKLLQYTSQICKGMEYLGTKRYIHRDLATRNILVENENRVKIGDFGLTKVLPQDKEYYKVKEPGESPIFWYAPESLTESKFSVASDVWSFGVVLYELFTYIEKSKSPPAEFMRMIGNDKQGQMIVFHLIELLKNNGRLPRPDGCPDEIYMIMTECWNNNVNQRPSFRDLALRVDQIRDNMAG

MHH-CALL-4 = assay: Cytotoxicity assay (resazurin, 72 hours); type: cell-based, human
GSPT1 = molecular target: T2, GSPT1 (Homo sapiens, UniProt P15170); assay: Immunoblot protein degradation in MHH-CALL-4 cells; type: cell-based
T2 construct: degradation of JAK2 and GSPT1 in MHH-CALL-4 cells; endogenous in cells; host or cells: MHH-CALL-4
T2 sequence (P15170 whole entry): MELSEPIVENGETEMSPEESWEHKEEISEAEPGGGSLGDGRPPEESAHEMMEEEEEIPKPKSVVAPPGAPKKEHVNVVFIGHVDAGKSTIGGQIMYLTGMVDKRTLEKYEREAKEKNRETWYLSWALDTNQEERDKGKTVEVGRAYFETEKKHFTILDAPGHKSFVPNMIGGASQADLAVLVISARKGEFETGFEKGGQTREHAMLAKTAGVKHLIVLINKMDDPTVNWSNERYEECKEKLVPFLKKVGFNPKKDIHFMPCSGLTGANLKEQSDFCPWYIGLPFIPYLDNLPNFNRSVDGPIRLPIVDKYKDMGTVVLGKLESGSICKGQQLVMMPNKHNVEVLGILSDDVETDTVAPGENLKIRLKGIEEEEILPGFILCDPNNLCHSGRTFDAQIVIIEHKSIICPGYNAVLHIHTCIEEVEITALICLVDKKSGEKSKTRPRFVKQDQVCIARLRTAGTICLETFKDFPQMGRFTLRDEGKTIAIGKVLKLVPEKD
Experimental: Cells were washed twice with ice-cold PBS and lysed in RIPA lysis buffer (Sigma) freshly supplemented with Halt™ Protease Inhibitor Cocktail (ThermoFisher) for 15 minutes on ice. The cell pellet was removed by centrifugation at 13,000 g at 4° C. for 15 minutes. Protein concentration was measured by BCA assay (Thermo Fisher Scientific). Proteins were denatured in NuPAGE LDS 4× sample buffer supplemented with reducing agents (Invitrogen). Typically, 10-20 µg of total protein was loaded per lane on a 4%-12% NuPAGE Bis-Tris gradient gel (Invitrogen) and analyzed by standard immunoblotting and imaged using Li-COR Odyssey CLx (LI-COR Biotechnology, Lincoln, NE). Primary antibodies used were: JAKI (Cell Signaling #3332S), JAK2 (#3230S), JAK3 (#8827S), TYK2 (#9312S), GSPT1 (#14980S), CRBN (#71810S), IKZF1 (Santa Cruz Biotechnology, SC-398265) and ACBT (Santa Cruz Biotechnology, SC-47778).

[1] = tested on: Human CD45+ leukemic cells purified from patient derived xenografts (PDX)
[2] = tested on: JAK-STAT5 signaling pathway; assay: Phosphoflow analysis in MHH-CALL-4 cells with or without TSLP; type: cell-based, human; conditions: 1 μM, one hour before TSLP 25 ng/mL for 30 minutes
Caco-2 cells = assay: Caco-2 cell permeability; type: in vitro ADME
Experimental: Compound Caco-2 cell permeability was determined using the Transwell® 0.4 μm polycarbonate membrane 96-well as described before (Uchida, et al. (2009) J Pharmacol Toxicol Methods 59(1): 39-43). Briefly, Caco-2 cells monolayers were incubated over 2 hours at 37° C. Fractions were collected from receivers (basal side, B), and concentrations were assessed by UPLC/MS (Waters; Milford, MA). All compounds were tested in triplicates. The A→B (or B→A) apparent permeability coefficients (Papp) of each compound were calculated using the equation, Papp=dQ/dt×1/AC0, where dQ/dt equals the flux of a drug across the monolayer, A equals the total insert well surface area, and CO is the initial concentration of substrate in the donor compartment.

| Structure (SMILES) | extent of degradation of JAK2 (JAK2) | extent of degradation of GSPT1 (GSPT1) | killing of MHH-CALL-4 cells / cytotoxicity, in words (MHH-CALL-4) | cytotoxicity in PDX cells ex vivo [1] | other results |
| --- | --- | --- | --- | --- | --- |
| N#CC[C@H](C1CCCC1)n1cc(-c2nc(Nc3ccc(C(=O)NCCCCNc4cccc5c4C(=O)N(C4CCC(=O)NC4=O)C5=O)cc3)nc3[nH]ccc23)cn1 (stereo partly shown) [Compound 5] | – | degradation of GSPT1 was observed | – | show cytotoxicity | JAK inhibition (phosphoflow) [2]: comparable JAK inhibition; EC50 (MHH-CALL-4; Homo sapiens, MHHCALL4, Table 6, no star, read-out: HHCALL4 (nM), MHHCALL4 EC50): 784 nM |
| N#CC[C@H](C1CCCC1)n1cc(-c2ncnc3[nH]ccc23)cn1 [Ruxolitinib, reference compound] | – | – | – | – | EC50 (MHH-CALL-4; Homo sapiens, MHHCALL4, read-out: HHCALL4 (nM), MHHCALL4 EC50): 5800 nM |
| CCS(=O)(=O)N1CC(CC#N)(n2cc(-c3nc(Nc4ccc(C(=O)NCCN5CCN(c6ccc7c(c6)C(=O)N(C6CCC(=O)NC6=O)C7=O)CC5)cc4)nc4[nH]ccc34)cn2)C1 (stereo not shown) [Compound 8] | – | – | intermediately effective | – | killing of MHH-CALL-4 cells / cytotoxicity, in words (MHH-CALL-4; listed as compound 8): reduced activity |
| CNCCCN1CCN(c2ccc3c(c2)C(=O)N(C2CCC(=O)NC2=O)C3=O)CC1 (stereo not shown) [Cmpd. no. 56] | preferential | – | intermediately effective | – | – |
| CCS(=O)(=O)N1CC(CC#N)(n2cc(-c3nc(Nc4ccc(C(=O)NCCCCNc5cccc6c5C(=O)N(C5CCC(=O)NC5=O)C6=O)cc4)nc4[nH]ccc34)cn2)C1 (stereo not shown) [Compound 6] | – | – | – | show cytotoxicity | JAK inhibition (phosphoflow) [2]: comparable JAK inhibition; EC50 (MHH-CALL-4; Table 6, no star, read-out: HHCALL4 (nM), MHHCALL4 EC50): 1.52 nM |
| CC(=O)Nc1cc(Oc2ccc3c(nc(Nc4ccc(F)cc4F)n3C)c2C)ccn1 [CHZ868, reference compound] | – | – | – | not | – |
| CCCn1cc(-c2nc(Nc3ccc(C(=O)NCCCCNc4cccc5c4C(=O)N(C4CCC(=O)NC4=O)C5=O)cc3)nc3[nH]ccc23)cn1 (stereo not shown) [SJ000988497] | – | – | – | – | Papp, Caco-2 assay (Caco-2 cells): 1.912 ×10⁻⁶ cm/s |

Further lines, with some results ahead:

| extent of degradation of JAK2 (JAK2) | extent of degradation of GSPT1 (GSPT1) | Structure (SMILES) | killing of MHH-CALL-4 cells / cytotoxicity, in words (MHH-CALL-4) | cytotoxicity in PDX cells ex vivo [1] | other results |
| --- | --- | --- | --- | --- | --- |
| minimal activity on either target | minimal activity on either target | CC(=O)NCCCNC(=O)COc1cccc2c1C(=O)N(C1CCC(=O)NC1=O)C2=O (stereo not shown) [Cmpd. no. 59] | relatively low activity | – | – |
| minimal activity on either target | minimal activity on either target | CNCCCCNc1ccc2c(c1)C(=O)N(C1CCC(=O)NC1=O)C2=O (stereo not shown) [Cmpd. no. 80] | relatively low activity | – | – |
| – | preferential | CC(=O)NCCCNc1ccc2c(c1)C(=O)N(C1CCC(=O)NC1=O)C2=O (stereo not shown) [Cmpd. no. 53] | intermediately effective | – | – |
